Assays:
Assay type in all cases: in vivo
Avena fatua = experiment: Test Example 4: herbicidal effect by application to foliage (diluvial soil, plastic box); settings: application to foliage
Source text: (§1) 5 Herbicidal ratio of 90% or more (almost completely withered) 4 Herbicidal ratio of 70% or more and less than 90% 3 Herbicidal ratio of 40% or more and less than 70% 2 Herbicidal ratio of 20% or more and less than 40% 1 Herbicidal ratio of 5% or more and less than 20% 0 Herbicidal ratio of 5% or less (almost no effect) [Test Example 4] Herbicidal Effect Test by Application to Foliage Sterilized diluvial soil was placed in a plastic box having a length of 21 cm, a width of 13 cm, and a depth of 7 cm. Each of the seeds of Digitaria ciliaris, Setaria viridis, Echinochloa crus-galli var. crus-galli, Avena fatua, Alopecurus myosuroides, Lolium multiflorum Lam., Apera spica-venti., Abutilon theophrasti, Amaranthus retroflexus, Chenopodium album, Stellaria media, Galium spurium, Veronica persica, Zea mays, Glycine max, Oryza sativa, Triticum aestivum, Beta vulgaris ssp. vulgaris, and Brassica campestris L. was sowed in a spot-like manner and was covered with the soil of about 1.5 cm thick. Thereafter, the plants were grown in the greenhouse of 25° C. to 30° C. After the plants were grown for 14 days, the emulsion agent containing the compound of the present invention prepared in accordance with Formulation Example 2 was diluted with water so as to be a predetermined herbicide amount and the diluted compound was uniformly applied to a stem and leaf part with a small-size spray. Three weeks after the herbicide application, effects on each plant were investigated in accordance with the criteria of Test Example 1. A: Echinochloa oryzicola Vasing., B: Scirpus juncoides, C: Monochoria vaginalis, D: Leptochloa chinensis, E: Cyperus difformis, F: Digitaria ciliaris, G: Setaria viridis, H: Echinochloa crus-galli var. crus-galli, I: Avena fatua, J: Alopecurus myosuroides, K: Lolium multiflorum Lam., L: Apera spica-venti., M: Abutilon theophrasti, N: Amaranthus retroflexus, O: Chenopodium album, P: Stellaria media, Q: Galium spurium, R: Veronica persica, a: transplanted Oryza sativa, b: directly sowed Oryza sativa, c: Zea mays, d: Glycine max, e: Triticum aestivum, f: Beta vulgaris ssp. vulgaris, and g: Brassica campestris L. The application herbicide amount (g/ha) means an amount that a concentration is adjusted so that, when an application amount is converted into per hectare (1 ha), the herbicide is applied by the number of grams (g) of the described value.

[1] = tested on: Echinochloa crus-galli var. crus-galli; experiment: as above; settings: application to foliage
Source text: as §1

Stellaria media = experiment: as above; settings: application to foliage
Source text: as §1

Lolium multiflorum Lam. = experiment: as above; settings: application to foliage
Source text: as §1

Apera spica-venti. = experiment: as above; settings: application to foliage
Source text: as §1

Digitaria ciliaris = experiment: as above; settings: application to foliage
Source text: as §1

Abutilon theophrasti = experiment: as above; settings: application to foliage
Source text: as §1

Setaria viridis = experiment: as above; settings: application to foliage
Source text: as §1

Galium spurium = experiment: as above; settings: application to foliage
Source text: as §1

Chenopodium album = experiment: as above; settings: application to foliage
Source text: as §1

Amaranthus retroflexus = experiment: as above; settings: application to foliage
Source text: as §1

Veronica persica = experiment: as above; settings: application to foliage
Source text: as §1

Alopecurus myosuroides = experiment: as above; settings: application to foliage
Source text: as §1

Monochoria vaginalis = experiment: Test Example 1: herbicidal activity, application before weed generation in submerged conditions; settings: Application herbicide amount 320 g/ha; Seventeenth Table
Source text: (§2) [Test Example 1] Herbicidal Activity Test by Application Before Weed Generation in Submerged Conditions After alluvial soil was placed into 1/10000 are of Wagner pot, water was poured and mixed to form a submerged condition having a water depth of 4 cm. Seeds of Echinochloa oryzacola Vasing., Scirpus juncoides, and Monochoria vaginalis were sowed in a mixed manner in the above pot and thereafter 2.5 leaf stage Oryza sativa seedling was transplanted. On the day of sowing seeds, the emulsion agent containing the compound of the present invention prepared in accordance with Formulation Example 2 was diluted with water so as to be a predetermined herbicide amount and the diluted compound was applied to the surface of the water. The pot was placed in a greenhouse of 25° C. to 30° C. to grow plant. Three weeks after the herbicide application, effects on each plant were investigated in accordance with the following criteria. Criteria 5 Herbicidal ratio of 90% or more (almost completely withered) 4 Herbicidal ratio of 70% or more and less than 90% 3 Herbicidal ratio of 40% or more and less than 70% 2 Herbicidal ratio of 20% or more and less than 40% 1 Herbicidal ratio of 5% or more and less than 20% 0 Herbicidal ratio of 5% or less (almost no effect) A: Echinochloa oryzicola Vasing., B: Scirpus juncoides, C: Monochoria vaginalis, D: Leptochloa chinensis, E: Cyperus difformis, F: Digitaria ciliaris, G: Setaria viridis, H: Echinochloa crus-galli var. crus-galli, I: Avena fatua, J: Alopecurus myosuroides, K: Lolium multiflorum Lam., L: Apera spica-venti., M: Abutilon theophrasti, N: Amaranthus retroflexus, O: Chenopodium album, P: Stellaria media, Q: Galium spurium, R: Veronica persica, a: transplanted Oryza sativa, b: directly sowed Oryza sativa, c: Zea mays, d: Glycine max, e: Triticum aestivum, f: Beta vulgaris ssp. vulgaris, and g: Brassica campestris L. The application herbicide amount (g/ha) means an amount that a concentration is adjusted so that, when an application amount is converted into per hectare (1 ha), the herbicide is applied by the number of grams (g) of the described value.

Scirpus juncoides = experiment: as above; settings: Application herbicide amount 320 g/ha; Seventeenth Table
Source text: as §2

[2] = tested on: transplanted Oryza sativa; experiment: Test Example 1: effect on crop, application before weed generation in submerged conditions; settings: Application herbicide amount 320 g/ha; Seventeenth Table
Source text: as §2

Triticum aestivum = experiment: Test Example 4: effect on crop by application to foliage (diluvial soil, plastic box); settings: application to foliage
In short: (§3)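 Plants were grown in sterilized diluvial soil in a greenhouse at 25-30° C for 14 days, then sprayed on stems and leaves with water-diluted emulsion formulation at set rates in g/ha. Weed control and crop injury were scored 3 weeks after treatment on a 0-5 herbicidal-ratio scale, from 0 (≤5%) to 5 (≥90%).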

Brassica campestris L. = experiment: as above; settings: application to foliage
In short: as §3

[3] = tested on: directly sowed Oryza sativa; experiment: as above; settings: application to foliage
In short: as §3

Glycine max = experiment: as above; settings: application to foliage
In short: as §3

Zea mays = experiment: as above; settings: application to foliage
In short: as §3

[4] = tested on: Beta vulgaris ssp. vulgaris; experiment: as above; settings: application to foliage
In short: as §3

[5] = tested on: Echinochloa crus-galli var. crus-galli; experiment: Test Example 3: herbicidal effect by application to foliage (Wagner pot, water depth 0.1-0.5 cm); settings: Nineteenth Table; application to foliage; application herbicide amount 320 g/ha
Source text: (§4) 5 Herbicidal ratio of 90% or more (almost completely withered) 4 Herbicidal ratio of 70% or more and less than 90% 3 Herbicidal ratio of 40% or more and less than 70% 2 Herbicidal ratio of 20% or more and less than 40% 1 Herbicidal ratio of 5% or more and less than 20% 0 Herbicidal ratio of 5% or less (almost no effect) [Test Example 3] Herbicidal Effect Test by Application to Foliage After alluvial soil was placed into 1/10000 are of Wagner pot, water was poured and mixed to form a condition having a water depth of 0.1 cm to 0.5 cm. Seeds of Echinochloa crus-galli var. crus-galli, Leptochloa chinensis, Cyperus difformis, and Oryza sativa were sowed and the pot was placed in the greenhouse of 25° C. to 30° C. to grow the plants. After the plants were grown for 14 days, the emulsion agent containing the compound of the present invention prepared in accordance with Formulation Example 2 was diluted with water so as to be a predetermined herbicide amount and the diluted compound was uniformly applied to a stem and leaf part with a small-size spray. Three weeks after the herbicide application, effects on each plant were investigated in accordance with the criteria of Test Example 1. A: Echinochloa oryzicola Vasing., B: Scirpus juncoides, C: Monochoria vaginalis, D: Leptochloa chinensis, E: Cyperus difformis, F: Digitaria ciliaris, G: Setaria viridis, H: Echinochloa crus-galli var. crus-galli, I: Avena fatua, J: Alopecurus myosuroides, K: Lolium multiflorum Lam., L: Apera spica-venti., M: Abutilon theophrasti, N: Amaranthus retroflexus, O: Chenopodium album, P: Stellaria media, Q: Galium spurium, R: Veronica persica, a: transplanted Oryza sativa, b: directly sowed Oryza sativa, c: Zea mays, d: Glycine max, e: Triticum aestivum, f: Beta vulgaris ssp. vulgaris, and g: Brassica campestris L. The application herbicide amount (g/ha) means an amount that a concentration is adjusted so that, when an application amount is converted into per hectare (1 ha), the herbicide is applied by the number of grams (g) of the described value.

Leptochloa chinensis = experiment: as above; settings: Nineteenth Table; application to foliage; application herbicide amount 320 g/ha
Source text: as §4

Cyperus difformis = experiment: as above; settings: Nineteenth Table; application to foliage; application herbicide amount 320 g/ha
Source text: as §4

[6] = application herbicide amount 320 g/ha

CC#Cc1nnc2c(C(=O)Nc3nnc(C)o3)ccc(C(F)(F)F)n12 [1-161]
I: herbicidal effect on Avena fatua (Avena fatua; [6]): 0 (Herbicidal ratio of 5% or less (almost no effect))
H: herbicidal effect on Echinochloa crus-galli var. crus-galli [1, 6]: 3 (Herbicidal ratio of 40% or more and less than 70%)
P: herbicidal effect on Stellaria media (Stellaria media; [6]): 0 (Herbicidal ratio of 5% or less (almost no effect))
K: herbicidal effect on Lolium multiflorum Lam. (Lolium multiflorum Lam.; [6]): 0 (Herbicidal ratio of 5% or less (almost no effect))
L: herbicidal effect on Apera spica-venti. (Apera spica-venti.; [6]): 0 (Herbicidal ratio of 5% or less (almost no effect))
F: herbicidal effect on Digitaria ciliaris (Digitaria ciliaris; [6]): 3 (Herbicidal ratio of 40% or more and less than 70%)
M: herbicidal effect on Abutilon theophrasti (Abutilon theophrasti; [6]): 1 (Herbicidal ratio of 5% or more and less than 20%)
G: herbicidal effect on Setaria viridis (Setaria viridis; [6]): 0 (Herbicidal ratio of 5% or less (almost no effect))
Q: herbicidal effect on Galium spurium (Galium spurium; [6]): 0 (Herbicidal ratio of 5% or less (almost no effect))
O: herbicidal effect on Chenopodium album (Chenopodium album; [6]): 4 (Herbicidal ratio of 70% or more and less than 90%)
N: herbicidal effect on Amaranthus retroflexus (Amaranthus retroflexus; [6]): 0 (Herbicidal ratio of 5% or less (almost no effect))
R: herbicidal effect on Veronica persica (Veronica persica; [6]): 1 (Herbicidal ratio of 5% or more and less than 20%)
J: herbicidal effect on Alopecurus myosuroides (Alopecurus myosuroides; [6]): 0 (Herbicidal ratio of 5% or less (almost no effect))
C: Monochoria vaginalis (herbicidal effect grade) (Monochoria vaginalis): 0 (Herbicidal ratio of 5% or less (almost no effect))
B: Scirpus juncoides (herbicidal effect grade) (Scirpus juncoides): 2 (Herbicidal ratio of 20% or more and less than 40%)
a: transplanted Oryza sativa (effect on crop grade) [2]: 0 (Herbicidal ratio of 5% or less (almost no effect))
e: effect on crop, Triticum aestivum (Triticum aestivum; [6]): 0 (Herbicidal ratio of 5% or less (almost no effect))
g: effect on crop, Brassica campestris L. (Brassica campestris L.; [6]): 0 (Herbicidal ratio of 5% or less (almost no effect))
b: effect on crop, directly sowed Oryza sativa [3, 6]: 0 (Herbicidal ratio of 5% or less (almost no effect))
d: effect on crop, Glycine max (Glycine max; [6]): 1 (Herbicidal ratio of 5% or more and less than 20%)
c: effect on crop, Zea mays (Zea mays; [6]): 0 (Herbicidal ratio of 5% or less (almost no effect))
f: effect on crop, Beta vulgaris ssp. vulgaris [4, 6]: 1 (Herbicidal ratio of 5% or more and less than 20%)

CCOC(=O)Cn1nnnc1NC(=O)c1ccc(C(F)(F)F)n2c(C(C)C)nnc12 [2-092]
herbicidal effect, I (Avena fatua) (Avena fatua; 320 g/ha): 1 (Herbicidal ratio of 5% or more and less than 20%)
herbicidal effect, H (Echinochloa crus-galli var. crus-galli) ([1]; 320 g/ha): 2 (Herbicidal ratio of 20% or more and less than 40%)
herbicidal effect, P (Stellaria media) (Stellaria media; 320 g/ha): 3 (Herbicidal ratio of 40% or more and less than 70%)
herbicidal effect, K (Lolium multiflorum Lam.) (Lolium multiflorum Lam.; 320 g/ha): 0 (Herbicidal ratio of 5% or less (almost no effect))
herbicidal effect, L (Apera spica-venti.) (Apera spica-venti.; 320 g/ha): 0 (Herbicidal ratio of 5% or less (almost no effect))
herbicidal effect, F (Digitaria ciliaris) (Digitaria ciliaris; 320 g/ha): 0 (Herbicidal ratio of 5% or less (almost no effect))
herbicidal effect, M (Abutilon theophrasti) (Abutilon theophrasti; 320 g/ha): 1 (Herbicidal ratio of 5% or more and less than 20%)
herbicidal effect, G (Setaria viridis) (Setaria viridis; 320 g/ha): 0 (Herbicidal ratio of 5% or less (almost no effect))
herbicidal effect, Q (Galium spurium) (Galium spurium; 320 g/ha): 1 (Herbicidal ratio of 5% or more and less than 20%)
herbicidal effect, O (Chenopodium album) (Chenopodium album; 320 g/ha): 3 (Herbicidal ratio of 40% or more and less than 70%)
herbicidal effect, N (Amaranthus retroflexus) (Amaranthus retroflexus; 320 g/ha): 1 (Herbicidal ratio of 5% or more and less than 20%)
herbicidal effect, R (Veronica persica) (Veronica persica; 320 g/ha): 1 (Herbicidal ratio of 5% or more and less than 20%)
herbicidal effect, J (Alopecurus myosuroides) (Alopecurus myosuroides; 320 g/ha): 0 (Herbicidal ratio of 5% or less (almost no effect))
H (herbicidal effect grade) [5]: 2 (Herbicidal ratio of 20% or more and less than 40%)
D (herbicidal effect grade) (Leptochloa chinensis): 3 (Herbicidal ratio of 40% or more and less than 70%)
E (herbicidal effect grade) (Cyperus difformis): 2 (Herbicidal ratio of 20% or more and less than 40%)
effect on crop, e (Triticum aestivum) (Triticum aestivum; 320 g/ha): 0 (Herbicidal ratio of 5% or less (almost no effect))
effect on crop, g (Brassica campestris L.) (Brassica campestris L.; 320 g/ha): 0 (Herbicidal ratio of 5% or less (almost no effect))
effect on crop, d (directly sowed Oryza sativa) ([3]; 320 g/ha): 1 (Herbicidal ratio of 5% or more and less than 20%)
effect on crop, c (Glycine max) (Glycine max; 320 g/ha): 0 (Herbicidal ratio of 5% or less (almost no effect))
effect on crop, b (Zea mays) (Zea mays; 320 g/ha): 0 (Herbicidal ratio of 5% or less (almost no effect))
effect on crop, f (Beta vulgaris ssp. vulgaris) ([4]; 320 g/ha): 3 (Herbicidal ratio of 40% or more and less than 70%)

Reference: US9708314B2, “Heterocyclic amide compound” (NISSAN CHEMICAL INDUSTRIES, LTD., priority 2013, dated 2017)
